Source: patent USRE37781E1, “Substituted cyclic carbonyls and derivatives thereof useful as retroviral protease inhibitors” (DuPont Pharmaceuticals Company, priority 1991, dated 2002)
pKi: −log10 of the molar value. Read-outs that look alike come from different tables or passages of the source.

Assays:
[1] = target: single-chain tethered dimer of HIV protease (Human immunodeficiency virus 1, UniProt P04585); experiment: biochemical; assay type: biochemical; set-up: fused on or other part: A second copy of the same protease unit is joined to the first by a short peptide tether, giving one polypeptide
Method: HIV Protease Inhibition Assay—HPLC Method
Active protease was prepared as described therein by extraction with 67% acetic acid, dilution 33-fold with water, dialysis against water and then against a “refolding buffer” consisting of 20 mM MES, 1 mM dithiothreitol and 10% glycerol. Protease was stored as a stock preparation at 10 uM in refolding buffer.
Substrate: Peptide of sequence: aminobenzoyl-Ala-Thr-His-Gln-Val-Tyr-Phe(NO2)-Val-Arg-Lys-Ala containing p-nitrophenylalanine, was prepared by solid phase synthesis as previously described Cheng et al., op.cit. Stock solutions of 2 mM substrate were prepared in DMSO.
Inhibitory compounds were dissolved in sufficient DMSO to make 3 mM stock solutions. All further dilutions were prepared in “assay buffer”: 1M NaCl, 50 mM MES, pH 5.5, 1 mM EDTA, 1 mM DTT, […] glycerol.
Enzyme reaction: In a 2 ml screw-cap centrifuge tube were added 50 ul protease (final concentration 0.25 nM) and 0.1 ml inhibitory compound (final concentration […]). After 15 min preincubation at room temperature, the reaction was started with the addition of 0.05 ml substrate (final concentration 5 uM). Incubation was carried out at 30 C. for 1 hr. The reaction was stopped with 1 ml 0.1M ammonium hydroxide.
HPLC measurement of product formation: The product (aminobenzoyl-Ala-Thr-His-Gln-Val-Tyr) was separated from substrate on a Pharmacia MonoQ anion exchange column. The injection volume was 0.2 ml. The mobile phases were: A (20 mM trisHCl, pH 9.0, 0.02% sodium Azide, 10% acetonitrile), B (20 mM tris HCl, pH 9.0, 0.02% sodium azide, 0.5M ammonium formate, 10% acetonitrile). The mobile phases were pumped at 1 ml/min, with a gradient from 0 to 30% B in 5 min, 100% B for 4 min to wash the column, and a re-equilibration for 4 min. The retention time of the product was 3.6 min. Detection with a Shimadzu model RF535 fluorescence monitor was at 330 nm (excitation) and 430 (emission).

HIV-1 (RF) in MT-2 cells = experiment: microbe, parasite or virus in culture; assay type: cell-based
Method: DNA Plasmids and in vitro RNA transcripts:
Plasmid pDAB 72 containing both gag and pol sequences of BH10 (bp 113-1816) cloned into PTZ 19R was prepared according to Erickson-Viitanen et al. AIDS Research and Human Retroviruses 1989, 5, 577. The plasmid was linearized with Bam HI prior to the generation of in vitro RNA transcripts using the Riboprobe Gemini system II kit (Promega) with T7 RNA polymerase. Synthesized RNA was purified by treatment with RNase free DNAse (Promega), phenol-chloroform extraction, and ethanol precipitation. RNA transcripts were dissolved in water, and stored at −70° C. The concentration of RNA was determined from the A260.
Biotinylated capture probes were purified by HPLC after synthesis on an Applied Biosystems (Foster City, Calif.) DNA synthesizer by addition of biotin to the 5′ terminal end of the oligonucleotide, using the biotin-phosphoramidite reagent of Cocuzza, Tet. Lett. 1989, 30, 6287. The gag biotinylated capture probe (5-biotin-[…] 3′) was complementary to nucleotides 889-912 of HXB2 and the pol biotinylated capture probe (5′-biotin-[…] 3′) was complementary to nucleotides 2374-2395 of HXB2. Alkaline phosphatase conjugated oligonucleotides used as reporter probes were prepared by Syngene (San Diego, Calif.). The pol reporter probe (5′ […] 3′) was complementary to nucleotides 2403-2425 of HXB2. The gag reporter probe (5′ […] 3′) was complementary to nucleotides 950-973 of HXB2. All nucleotide positions are those of the GenBank Genetic Sequence Data Bank as accessed through the Genetics Computer Group Sequence Analysis Software Package (Devereau Nucleic Acids Research 1984, 12, 387). The reporter probes were prepared as 0.5μM stocks in 2× SSC (0.3M NaCl, 0.03M sodium citrate), 0.05M Tris pH 8.8, 1 mg/mL BSA. The biotinylated capture probes were prepared as 10 μM stocks in water.
Streptavidin coated plates:
Nunc-immunomodule microtiter plate strips were coated by addition of 200 μL of streptavidin (30 ug/mL, Scripps, La Jolla, Calif.) in freshly prepared 10 mM sodium carbonate (pH 9.6). Plates were incubated overnight at 4° C. Streptavidin solution was aspirated from the wells and a blocking buffer composed of phosphate buffered saline (PBS), 20 mg/mL bovine serum albumin (crystalline, nuclease and protease free, Calbiochem) and 100 mg/mL lactose (Sigma) was added to the plates for 3 hrs at room temperature. Blocking buffer was removed from the wells, which were allowed to dry overnight at room temperature and subsequently stored at 4° C. in zip lock bags with desiccant. For the majority of the compound evaluation experiments, streptavidin coated plates were obtained from Du Pont Biotechnology Systems (Boston, Mass.).
MT-2, CEM, and H9 cells were maintained in RPMI 1640 supplemented with 5% fetal calf serum (FCS), 2 mM L-glutamine and 50 μg/mL gentamycin, all from Gibco. Laboratory strains of HIV-1 (RF, MN and IIIB) were propagated in H9 cells in the same medium. Virus stocks were prepared approximately 1 month after acute infection of H9 cells by clarification of the tissue culture medium and storage of aliquots at −70° C. […] Each aliquot of virus stock used for infection was thawed only once. In some cases, infected H9 cells were shifted to Dulbecco's modified Eagle's medium 3-10 days before collection of virus in order to generate virus stocks in medium with low biotin content. Clinical isolates of HIV that had been passaged once in MT-2 cells were used to infect fresh MT-2 cells in RPMI medium. Three days after infection, cells were pelleted, resuspended and culture continued in Dulbecco's modified Eagle's medium as above. Virus stocks of clinical isolates were prepaid 10-15 days after infection when cytopathic effects were apparent in the culture.

[2] = read-out: HPLC K1, Table 2d, HIV protease inhibition, HPLC method
[3] = Human immunodeficiency virus 1, MT2, 48 h, Table 2d, HIV RNA assay, read-out: IC90
[4] = read-out: HPLC K1, Table 2d, class symbols
[5] = Human immunodeficiency virus 1, MT2, 48 h, Table 2d, class symbols, read-out: IC90

`O=Cc1ccc(CN2C(=O)N(Cc3ccc(CO)cc3)C(Cc3ccccc3)C(O)C(O)C2Cc2ccccc2)cc1` (stereo not shown) [15XB] showed a pKi [1, 2] of over 8.00 and an IC90 (HIV-1 (RF) in MT-2 cells; [3]) of under 10 µg/mL.

In the case of `O=S1(=O)NC(Cc2ccccc2)C(O)C(O)C(Cc2ccccc2)N1` (stereo not shown) [23A], the pKi ([1]; Table 2m, read-out: HPLC Ki) was under 6.00 and the IC90 (HIV-1 (RF) in MT-2 cells; Table 2m) was “++ (++=10 to 100 μg/mL)”.

`O=S1(=O)N(CC2CCOC2)C(Cc2ccccc2)C(O)C(O)C(Cc2ccccc2)N1CC1CCOC1` (stereo not shown) [23R] was tested, and the pKi ([1]; Table 2m, read-out: HPLC Ki) was 6.00 to 8.00 and the IC90 (HIV-1 (RF) in MT-2 cells; Table 2m) was “+++ (+++=<10 μg/mL)”.

With `CCCN1C(Cc2ccccc2)C(O)C(O)C(Cc2ccccc2)N(CCC)S1(=O)=O` (stereo not shown) [23X] the pKi ([1]; Table 2m, read-out: HPLC Ki) was over 8.00 and the IC90 (HIV-1 (RF) in MT-2 cells; Table 2m) was “+++ (+++=<10 μg/mL)”.

`O=C1N(CCCCCO)C(Cc2ccccc2)C(O)C(O)C(Cc2ccccc2)N1CC1CC1` (stereo not shown) [Example 15VU] showed a pKi [1, 4] of over 8.00 and an IC90 (HIV-1 (RF) in MT-2 cells; [5]) of under 10 µg/mL.

For `O=S1(=O)N(Cc2cccc(CO)c2)C(Cc2ccc(F)cc2)C(O)C(O)C(Cc2ccc(F)cc2)N1Cc1cccc(CO)c1` (stereo not shown) [31C], the pKi ([1]; Table 2u (second printing), HPLC method, read-out: K1 (HPLC)) was over 8.00, the pKi ([1]; Table 2u, HPLC method, read-out: K1 (HPLC)) was over 8.00 and the IC90 (HIV-1 (RF) in MT-2 cells; Table 2u) was “+++ (+++=<10 μg/mL)”. The IC90 (HIV-1 (RF) in MT-2 cells; Table 2u (second printing)) was “+++ (+++=<10 μg/mL)”.

In the case of `C=CCN1C(Cc2ccccc2)C(O)C(O)C(Cc2ccccc2)N(CC=C)S1(=O)=O` (stereo not shown) [23E], the pKi ([1]; Table 2m, read-out: HPLC Ki) was 6.00 to 8.00 and the IC90 (HIV-1 (RF) in MT-2 cells; Table 2m) was “+++ (+++=<10 μg/mL)”.

For `COc1cccc(CC2C(O)C(O)C(Cc3cccc(OC)c3)N(Cc3ccc(CO)cc3)C(=O)N2Cc2ccc(CO)cc2)c1` (stereo not shown) [20AT], the pKi ([1]; Table 2i, read-out: HPLC Ki) was over 8.00 and the IC90 (HIV-1 (RF) in MT-2 cells; Table 2i) was “+++ (+++=<10 μg/mL)”.

`Cc1ccc(S(=O)(=O)NN=Cc2cccc(CN3C(=O)N(Cc4cccc(C=NNS(=O)(=O)c5ccc(C)cc5)c4)C(Cc4ccccc4)C(O)C(O)C3Cc3ccccc3)c2)cc1` (stereo not shown) [Example 15YF] gave a pKi [1, 2] of 6.00 to 8.00 and an IC90 (HIV-1 (RF) in MT-2 cells; [3]) of under 10 µg/mL.

`O=C1N(Cc2cccc(OCCO)c2)C(Cc2ccccc2)C(O)C(O)C(Cc2ccccc2)N1Cc1cccc(OCCO)c1` (stereo not shown) [10Y] gave a pKi [1, 4] of over 8.00 and an IC90 (HIV-1 (RF) in MT-2 cells; [5]) of under 10 µg/mL.

With `O=C1N(Cc2ccc3[nH]nnc3c2)C(Cc2ccccc2)C(O)C(O)C(Cc2ccccc2)N1Cc1ccc2[nH]nnc2c1` (stereo not shown) [15CT] the pKi ([1]; Table 2d, HIV protease inhibition, HPLC method, read-out: HPLC K1) was over 8.00 and the IC90 (HIV-1 (RF) in MT-2 cells; Table 2d, HIV RNA assay) was “+++ (+++=<10 μg/mL)”.

In the case of `CCN(CC)Cc1cccc(CN2C(=O)N(Cc3cccc(CN(CC)CC)c3)C(Cc3ccccc3)C(O)C(O)C2Cc2ccccc2)c1` (stereo not shown) [Example 15XF], the pKi [1, 2] was 6.00 to 8.00 and the IC90 (HIV-1 (RF) in MT-2 cells; [3]) was under 10 µg/mL.

Compound `NCC(=O)Nc1cccc(CN2C(=O)N(Cc3cccc(NC(=O)CN)c3)C(Cc3ccccc3)C(O)C(O)C2Cc2ccccc2)c1` (stereo not shown) [15R] has a pKi [1, 4] of over 8.00 and an IC90 (HIV-1 (RF) in MT-2 cells; [5]) of under 10 µg/mL.

In the case of `O=C1N(Cc2cccc(C#CCO)c2)C(Cc2ccccc2)C(O)C(O)C(Cc2ccccc2)N1Cc1cccc(C#CCO)c1` (stereo not shown) [Example 15XL], the pKi [1, 2] was over 8.00 and the IC90 (HIV-1 (RF) in MT-2 cells; [3]) was under 10 µg/mL.

`CC(C)(C)C(=O)c1cccc(CN2C(=O)N(Cc3cccc(C(=O)C(C)(C)C)c3)C(Cc3ccccc3)C(O)C(O)C2Cc2ccccc2)c1` (stereo not shown) [Example 15XH] showed a pKi [1, 2] of over 8.00 and an IC90 (HIV-1 (RF) in MT-2 cells; [3]) of under 10 µg/mL.

Work on `N#Cc1cccc(CN2C(=O)N(Cc3cccnc3)C(Cc3ccccc3)C(O)C(O)C2Cc2ccccc2)c1` (stereo not shown) [Example 15AR] yielded a pKi [1, 2] of over 8.00 and an IC90 (HIV-1 (RF) in MT-2 cells; [3]) of under 10 µg/mL.
